Measurements: PMC7835349 (Communications Biology, 2021)
Several values for one entry are separate records, joined by “and”; a condition that tells them apart may be missing. Equal values may be shown once.

Test system: telemetered dogs
Assay: Conscious dog telemetry (QRS amplitude and other cardiovascular parameters, tolerability)
[1] = dog, 0.85 mg/kg 0.5h infusion, 0.5 h, 0.85 mg/kg
[2] = dog, 0.85 mg/kg 0.5h infusion, 0.75 h, 0.85 mg/kg
[3] = dog, 0.85 mg/kg 0.5h infusion, 1 h, 0.85 mg/kg
[4] = dog, 0.85 mg/kg 0.5h infusion, 1.5 h, 0.85 mg/kg
[5] = dog, 0.85 mg/kg 0.5h infusion, 2 h, 0.85 mg/kg
[6] = dog, 0.85 mg/kg 0.5h infusion, 3 h, 0.85 mg/kg
[7] = dog, 0.85 mg/kg 0.5h infusion, 4 h, 0.85 mg/kg
[8] = dog, 0.85 mg/kg 0.5h infusion, 6 h, 0.85 mg/kg
[9] = dog, 0.85 mg/kg 0.5h infusion, 8 h, 0.85 mg/kg
[10] = dog, 0.85 mg/kg 0.5h infusion, 12 h, 0.85 mg/kg
[11] = dog, 0.85 mg/kg 0.5h infusion, 16 h, 0.85 mg/kg
[12] = dog, 0.85 mg/kg 0.5h infusion, 22 h, 0.85 mg/kg
[13] = dog, 0.85 mg/kg 0.5h infusion, -0.75 h, 0.85 mg/kg
[14] = dog, 0.85 mg/kg 0.5h infusion, -1 h, 0.85 mg/kg
[15] = dog, 0.85 mg/kg 0.5h infusion, -1.25 h, 0.85 mg/kg
[16] = dog, AZD4320 0.2 mg/kg, 0.5 h infusion
[17] = dog, AZD4320 0.85 mg/kg, 0.5 h infusion
[18] = dog, AZD4320 0.85 mg/kg, 3 h infusion
[19] = dog, AZD4320 1 mg/kg, 0.5 h infusion
[20] = dog, AZD4320 1.75 mg/kg, 0.5 h infusion

With `CN(CCO)CCC(CSc1ccccc1)Nc1ccc(S(=O)(=O)NC(=O)c2ccc(N3CCC(C(O)c4ccccc4-c4ccc(Cl)cc4)CC3)cc2)cc1S(=O)(=O)C(F)(F)F` (stereo not drawn) [AZD4320] the “QRS amplitude (% baseline)” value (dog, 0.2 mg/kg 0.5h infusion, -[…]) was 100 % baseline, the “ECG PR interval” value [1] was 115 ms and 79 ms and the “ECG QRS duration” value [1] was 45 ms and 37 ms and 40 ms. The “Left ventricular -dP/dt (mmHg/s)” value [1] was 3662 mmHg/s and 3777 mmHg/s and 3464 mmHg/s, the “QRS amplitude (% baseline)” value [1] was 94 % baseline and 95 % baseline and 97 % baseline and the “Systolic blood pressure (mmHg)” value [1] was 155 mmHg and 158 mmHg. For the same molecule, the “ECG PR interval” value [2] was 119 ms and 78 ms, the “ECG QRS duration” value [2] was 44 ms and 38 ms and 40 ms and the “Left ventricular -dP/dt (mmHg/s)” value [2] was 3170 mmHg/s and 3744 mmHg/s and 3322 mmHg/s. For the same molecule, the “QRS amplitude (% baseline)” value [2] was 99 % baseline and 91 % baseline and 104 % baseline, the “Systolic blood pressure (mmHg)” value [2] was 154 mmHg and 157 mmHg and the “ECG PR interval” value [3] was 115 ms and 91 ms. The “ECG QRS duration” value [3] was 44 ms and 37 ms and 40 ms, the “Left ventricular -dP/dt (mmHg/s)” value [3] was 3366 mmHg/s and 3696 mmHg/s and 3150 mmHg/s and the “QRS amplitude (% baseline)” value [3] was 100 % baseline and 90 % baseline and 102 % baseline. The “Systolic blood pressure (mmHg)” value [3] was 135 mmHg and 151 mmHg, the “ECG PR interval” value [4] was 117 ms and 112 ms and the “ECG QRS duration” value [4] was 44 ms and 39 ms and 40 ms. The “Left ventricular -dP/dt (mmHg/s)” value [4] was 3030 mmHg/s and 3166 mmHg/s, the “QRS amplitude (% baseline)” value [4] was 78 % baseline and 86 % baseline and the “Systolic blood pressure (mmHg)” value [4] was 147 mmHg and 138 mmHg. The “ECG PR interval” value [5] was 111 ms and 87 ms, the “ECG QRS duration” value [5] was 42 ms and 36 ms and 39 ms and the “Left ventricular -dP/dt (mmHg/s)” value [5] was 2904 mmHg/s and 3371 mmHg/s. For the same molecule, the “QRS amplitude (% baseline)” value [5] was 75 % baseline and 83 % baseline, the “Systolic blood pressure (mmHg)” value [5] was 144 mmHg and 171 mmHg and the “ECG PR interval” value [6] was 99 ms and 81 ms. For the same molecule, the “ECG QRS duration” value [6] was 37 ms and 33 ms, the “QRS amplitude (% baseline)” value [6] was 59 % baseline and 60 % baseline and the “Systolic blood pressure (mmHg)” value [6] was 142 mmHg and 156 mmHg. For the same molecule, the “ECG PR interval” value [7] was 93 ms and 79 ms, the “ECG QRS duration” value [7] was 36 ms and 33 ms and the “QRS amplitude (% baseline)” value [7] was 56 % baseline and 60 % baseline. For the same molecule, the “Systolic blood pressure (mmHg)” value [7] was 128 mmHg and 137 mmHg, the “ECG PR interval” value [8] was 89 ms and 79 ms and the “ECG QRS duration” value [8] was 37 ms and 35 ms. For the same molecule, the “Left ventricular -dP/dt (mmHg/s)” value [8] was 2074 mmHg/s and 2402 mmHg/s, the “QRS amplitude (% baseline)” value [8] was 67 % baseline and 70 % baseline and the “Systolic blood pressure (mmHg)” value [8] was 116 mmHg and 117 mmHg. For the same molecule, the “ECG PR interval” value [9] was 88 ms and 83 ms, the “ECG QRS duration” value [9] was 37 ms and 34 ms and the “Left ventricular -dP/dt (mmHg/s)” value [9] was 2367 mmHg/s and 2612 mmHg/s. The “QRS amplitude (% baseline)” value [9] was 78 % baseline and 80 % baseline, the “Systolic blood pressure (mmHg)” value [9] was 120 mmHg and 124 mmHg and the “ECG PR interval” value [10] was 85 ms. For the same molecule, the “ECG QRS duration” value [10] was 40 ms and 36 ms, the “Left ventricular -dP/dt (mmHg/s)” value [10] was 3043 mmHg/s and 2589 mmHg/s and the “QRS amplitude (% baseline)” value [10] was 84 % baseline and 70 % baseline. The “Systolic blood pressure (mmHg)” value [10] was 128 mmHg and 131 mmHg, the “ECG PR interval” value [11] was 102 ms and 87 ms and the “ECG QRS duration” value [11] was 42 ms and 37 ms. The “Left ventricular -dP/dt (mmHg/s)” value [11] was 3119 mmHg/s and 2829 mmHg/s, the “QRS amplitude (% baseline)” value [11] was 98 % baseline and 70 % baseline and the “Systolic blood pressure (mmHg)” value [11] was 130 mmHg and 147 mmHg. For the same molecule, the “ECG PR interval” value [12] was 112 ms and 84 ms, the “ECG QRS duration” value [12] was 44 ms and 36 ms and the “Left ventricular -dP/dt (mmHg/s)” value [12] was 3111 mmHg/s and 3851 mmHg/s. For the same molecule, the “QRS amplitude (% baseline)” value [12] was 101 % baseline and 78 % baseline, the “Systolic blood pressure (mmHg)” value [12] was 132 mmHg and 149 mmHg and the “ECG PR interval” value [13] was 111 ms and 99 ms. For the same molecule, the “ECG QRS duration” value [13] was 45 ms and 39 ms, the “Left ventricular -dP/dt (mmHg/s)” value [13] was 3973 mmHg/s and 3847 mmHg/s and 2891 mmHg/s and the “QRS amplitude (% baseline)” value [13] was 100 % baseline and 105 % baseline and 103 % baseline. For the same molecule, the “Systolic blood pressure (mmHg)” value [13] was 162 mmHg and 159 mmHg, the “ECG PR interval” value [14] was 108 ms and 98 ms and the “ECG QRS duration” value [14] was 44 ms and 36 ms and 39 ms. The “Left ventricular -dP/dt (mmHg/s)” value [14] was 3612 mmHg/s and 3810 mmHg/s and 3070 mmHg/s, the “QRS amplitude (% baseline)” value [14] was 101 % baseline and 100 % baseline and 107 % baseline and the “Systolic blood pressure (mmHg)” value [14] was 149 mmHg and 163 mmHg. The “ECG PR interval” value [15] was 110 ms and 96 ms and 89 ms, the “ECG QRS duration” value [15] was 44 ms and 37 ms and 40 ms and the “Left ventricular -dP/dt (mmHg/s)” value [15] was 3200 mmHg/s and 3594 mmHg/s and 2862 mmHg/s. The “QRS amplitude (% baseline)” value [15] was 100 % baseline and 105 % baseline, the “Systolic blood pressure (mmHg)” value [15] was 142 mmHg and 165 mmHg and 139 mmHg and the “QRS amplitude (% baseline)” value (dog, 0.85 mg/kg 0.5h infusion, -[…]) was 100 % baseline. The “tolerability” value (dog, 1 mg/kg AZD4320) was “not tolerated”, the “Effects” value [16] was “No effect level” and the “Tolerated?” value [16] was “Yes”. For the same molecule, the “Effects other than QRS amplitude” value [17] was “↓SBP, ↑HR, ↓dP/dt-, ↓PR interval, ↓QRS interval, ↓LVEDP”, the “Tolerated?” value [17] was “Yes” and the “↓QRS amplitude (% decrease)” value [17] was 49%. For the same molecule, the “Tolerated?” value [18] was “Yes”, the “↓QRS amplitude (% decrease)” value [18] was 32% and the “Effects other than QRS amplitude” value [19] was “poorly tolerated”. The “Tolerated?” value [19] was “No”, the “↓QRS amplitude (% decrease)” value [19] was 75% and the “Effects other than QRS amplitude” value [20] was “↓SBP, ↑HR, ↓dP/dt-, ↓PR interval, ↓QRS interval, ↓LVEDP”. For the same molecule, the “Tolerated?” value [20] was “No”, the “↓QRS amplitude (% decrease)” value [20] was 94% and the “cardiovascular changes” value (preclinical development, Supplementary Fig. 1a, b) was “dose-dependent decreases in QRS amplitude, QRS duration & PR intervals, blood pressure, left ventricular pressure and contractility”.
